Data: the supplement of paper PMC10307832

Key:
Experiment in all cases: relative viability (nuclei count vs DMSO), 5 days (fraction); higher = more cells survive
[1] = compound: CCOC1=CC=CC=C1N=NC2=C(NN(C2=O)C3=NC(=CS3)C4=CC=CC=C4)C [BAM7] + C[C@@H](Oc1cc(-c2cnn(C3CCNCC3)c2)cnc1N)c1c(Cl)ccc(F)c1Cl [Crizotinib] (partner 1 µM)
Summary of the method: (§1)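 Dosing by pin tool came one day after lung cancer cell lines were seeded in 1536-well plates, using either one drug or a fixed anchor-drug dose plus five library-drug doses (not always all listed) in √10 steps. After 5 days, nuclei were counted on 4× images. Relative viability is treated-well nuclei count divided by vehicle-well nuclei count, and values are medians of duplicate plates.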

[2] = compound: CCn1c(-c2nonc2N)nc2c(C#CC(C)(C)O)ncc(OC[C@H]3CCCNC3)c21 + Cc1cc(Nc2cc(N3CCN(C)CC3)nc(Sc3ccc(NC(=O)C4CC4)cc3)n2)n[nH]1 [Tozasertib] (partner 0.1 µM)
Summary of the method: as §1

[3] = compound: CCOC1=CC=CC=C1N=NC2=C(NN(C2=O)C3=NC(=CS3)C4=CC=CC=C4)C [BAM7] + Nc1ncn([C@H]2C[C@H](O)[C@@H](CO)O2)c(=O)n1 [Decitabine] (partner 2 µM)
Summary of the method: as §1

[4] = compound: CCn1c(-c2nonc2N)nc2c(C#CC(C)(C)O)ncc(OC[C@H]3CCCNC3)c21 + O=C(CCCCCCC(=O)Nc1ccccc1)NO [Vorinostat] (partner 1 µM)
Summary of the method: as §1

HCC-44
relative viability ([1]; first compound 0.5 µM): 0.883 | relative viability ([1]; first compound 5 µM): 0.907 | relative viability ([1]; first compound 15.81 µM): 0.749 | relative viability ([1]; first compound 50 µM): 0.787 | relative viability ([2]; first compound 0.1 µM): 1.08 | relative viability ([2]; first compound 0.3162 µM): 0.79 | relative viability ([2]; first compound 1 µM): 1.08 | relative viability ([3]; first compound 0.5 µM): 0.96 | relative viability ([3]; first compound 5 µM): 0.938 | relative viability ([3]; first compound 15.81 µM): 0.926 | relative viability ([3]; first compound 50 µM): 0.949 | relative viability ([4]; first compound 0.01 µM): 1.07 | relative viability ([4]; first compound 0.03162 µM): 1.07 | relative viability ([4]; first compound 0.1 µM): 1.05 | relative viability ([4]; first compound 0.3162 µM): 1.07 | relative viability ([4]; first compound 1 µM): 1.04

HCC-827
relative viability ([1]; first compound 0.5 µM): 0.917 | relative viability ([1]; first compound 5 µM): 0.873 | relative viability ([1]; first compound 15.81 µM): 0.932 | relative viability ([1]; first compound 50 µM): 0.839 | relative viability ([2]; first compound 0.01 µM): 0.391 | relative viability ([2]; first compound 0.03162 µM): 0.47 | relative viability ([2]; first compound 0.1 µM): 0.383 | relative viability ([2]; first compound 0.3162 µM): 0.449 | relative viability ([2]; first compound 1 µM): 0.43 | relative viability ([3]; first compound 0.5 µM): 0.314 | relative viability ([3]; first compound 5 µM): 0.314 | relative viability ([3]; first compound 15.81 µM): 0.376 | relative viability ([3]; first compound 50 µM): 0.302 | relative viability ([4]; first compound 0.01 µM): 0.86 | relative viability ([4]; first compound 0.03162 µM): 0.866 | relative viability ([4]; first compound 0.1 µM): 0.831 | relative viability ([4]; first compound 0.3162 µM): 0.76 | relative viability ([4]; first compound 1 µM): 0.834

NCI-H1623
relative viability ([2]; first compound 0.01 µM): 0.433 | relative viability ([2]; first compound 0.03162 µM): 0.468 | relative viability ([2]; first compound 0.1 µM): 0.446 | relative viability ([2]; first compound 0.3162 µM): 0.404 | relative viability ([2]; first compound 1 µM): 0.492

NCI-H2347
relative viability ([1]; first compound 0.5 µM): 0.738 | relative viability ([1]; first compound 5 µM): 0.995 | relative viability ([1]; first compound 15.81 µM): 0.674 | relative viability ([1]; first compound 50 µM): 0.745 | relative viability ([2]; first compound 0.01 µM): 0.6 | relative viability ([2]; first compound 0.03162 µM): 0.59 | relative viability ([2]; first compound 0.3162 µM): 0.613 | relative viability ([2]; first compound 1 µM): 0.583 | relative viability ([3]; first compound 0.5 µM): 0.598 | relative viability ([3]; first compound 5 µM): 0.736 | relative viability ([3]; first compound 15.81 µM): 0.641 | relative viability ([3]; first compound 50 µM): 0.606 | relative viability ([4]; first compound 0.01 µM): 0.602 | relative viability ([4]; first compound 0.03162 µM): 0.522 | relative viability ([4]; first compound 0.1 µM): 0.611 | relative viability ([4]; first compound 0.3162 µM): 0.543 | relative viability ([4]; first compound 1 µM): 0.55

PC-14
relative viability ([1]; first compound 0.5 µM): 1.07 | relative viability ([1]; first compound 5 µM): 0.99 | relative viability ([1]; first compound 15.81 µM): 0.805 | relative viability ([1]; first compound 50 µM): 0.859 | relative viability ([2]; first compound 0.01 µM): 0.587 | relative viability ([2]; first compound 0.03162 µM): 0.63 | relative viability ([2]; first compound 0.1 µM): 0.687 | relative viability ([2]; first compound 0.3162 µM): 0.533 | relative viability ([2]; first compound 1 µM): 0.716 | relative viability ([3]; first compound 0.5 µM): 0.243 | relative viability ([3]; first compound 5 µM): 0.183 | relative viability ([3]; first compound 15.81 µM): 0.208 | relative viability ([3]; first compound 50 µM): 0.208 | relative viability ([4]; first compound 0.01 µM): 0.68 | relative viability ([4]; first compound 0.03162 µM): 0.742 | relative viability ([4]; first compound 0.1 µM): 0.722 | relative viability ([4]; first compound 0.3162 µM): 0.556 | relative viability ([4]; first compound 1 µM): 0.461

NCI-H1651
relative viability ([1]; first compound 0.5 µM): 0.826 | relative viability ([1]; first compound 5 µM): 0.889 | relative viability ([1]; first compound 15.81 µM): 0.871 | relative viability ([1]; first compound 50 µM): 0.886 | relative viability ([2]; first compound 0.01 µM): 0.633 | relative viability ([2]; first compound 0.03162 µM): 0.624 | relative viability ([2]; first compound 0.1 µM): 0.794 | relative viability ([2]; first compound 0.3162 µM): 0.762 | relative viability ([2]; first compound 1 µM): 0.805 | relative viability ([3]; first compound 0.5 µM): 0.598 | relative viability ([3]; first compound 5 µM): 0.66 | relative viability ([3]; first compound 15.81 µM): 0.617 | relative viability ([3]; first compound 50 µM): 0.599 | relative viability ([4]; first compound 0.01 µM): 0.553 | relative viability ([4]; first compound 0.03162 µM): 0.606 | relative viability ([4]; first compound 0.1 µM): 0.613 | relative viability ([4]; first compound 0.3162 µM): 0.52 | relative viability ([4]; first compound 1 µM): 0.632

HARA
relative viability ([1]; first compound 0.5 µM): 1.1 | relative viability ([1]; first compound 5 µM): 1.15 | relative viability ([1]; first compound 15.81 µM): 0.887 | relative viability ([1]; first compound 50 µM): 1 | relative viability ([2]; first compound 0.01 µM): 0.13 | relative viability ([2]; first compound 0.03162 µM): 0.106 | relative viability ([2]; first compound 0.1 µM): 0.143 | relative viability ([2]; first compound 0.3162 µM): 0.0993 | relative viability ([2]; first compound 1 µM): 0.109 | relative viability ([3]; first compound 0.5 µM): 0.538 | relative viability ([3]; first compound 5 µM): 0.59 | relative viability ([3]; first compound 15.81 µM): 0.545 | relative viability ([3]; first compound 50 µM): 0.531 | relative viability ([4]; first compound 0.01 µM): 0.487 | relative viability ([4]; first compound 0.03162 µM): 0.488 | relative viability ([4]; first compound 0.1 µM): 0.638 | relative viability ([4]; first compound 0.3162 µM): 0.44 | relative viability ([4]; first compound 1 µM): 0.532

NCI-H1650
relative viability ([1]; first compound 0.5 µM): 0.882 | relative viability ([1]; first compound 5 µM): 1.07 | relative viability ([1]; first compound 15.81 µM): 0.939 | relative viability ([1]; first compound 50 µM): 0.848 | relative viability ([2]; first compound 0.01 µM): 0.398 | relative viability ([2]; first compound 0.03162 µM): 0.474 | relative viability ([2]; first compound 0.1 µM): 0.44 | relative viability ([2]; first compound 0.3162 µM): 0.403 | relative viability ([2]; first compound 1 µM): 0.44 | relative viability ([3]; first compound 0.5 µM): 0.39 | relative viability ([3]; first compound 5 µM): 0.409 | relative viability ([3]; first compound 15.81 µM): 0.431 | relative viability ([3]; first compound 50 µM): 0.38 | relative viability ([4]; first compound 0.01 µM): 0.614 | relative viability ([4]; first compound 0.03162 µM): 0.628 | relative viability ([4]; first compound 0.1 µM): 0.642 | relative viability ([4]; first compound 0.3162 µM): 0.377 | relative viability ([4]; first compound 1 µM): 0.462
